The values that follow come from paper PMC4126177, “Molecular docking simulation studies on potent butyrylcholinesterase inhibitors obtained from microbial transformation of dihydrotestosterone” (Chemistry Central Journal, 2013).

Where two headings read alike, the source gives them in different places.

This assay deals with T1, Equine serum BChE (butyrylcholinesterase) (Equus caballus, UniProt P81908).
T1 construct: commercial native enzyme from horse serum (Sigma); docking used human BChE 1P0P, not the assayed protein
In words: DTNB (Ellman-type) spectrophotometric assay, […] nm. The class given is biochemical. On the technique in general: DTNB colorimetry detects thiols as they appear.

T1 sequence (P81908 whole entry): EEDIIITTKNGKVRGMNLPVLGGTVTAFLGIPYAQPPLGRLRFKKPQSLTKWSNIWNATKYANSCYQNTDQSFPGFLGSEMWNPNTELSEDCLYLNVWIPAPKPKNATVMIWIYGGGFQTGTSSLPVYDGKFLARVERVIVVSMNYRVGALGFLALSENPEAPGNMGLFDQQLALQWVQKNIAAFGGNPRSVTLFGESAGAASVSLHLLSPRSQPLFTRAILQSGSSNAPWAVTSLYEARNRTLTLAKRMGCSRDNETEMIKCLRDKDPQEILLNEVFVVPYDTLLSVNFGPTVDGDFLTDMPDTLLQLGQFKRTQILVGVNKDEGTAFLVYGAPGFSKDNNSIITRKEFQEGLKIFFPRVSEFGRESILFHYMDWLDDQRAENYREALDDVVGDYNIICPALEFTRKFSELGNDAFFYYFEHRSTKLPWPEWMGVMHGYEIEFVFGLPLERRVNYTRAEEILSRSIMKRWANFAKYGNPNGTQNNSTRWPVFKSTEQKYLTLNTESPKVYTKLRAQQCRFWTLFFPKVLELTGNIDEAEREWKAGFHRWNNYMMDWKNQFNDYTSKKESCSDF

On to `C[C@]12C=CC(=O)C=C1CC[C@@H]1[C@@H]2CC[C@]2(C)C(=O)CC[C@@H]12` [compound 5, Androst-1,4-dien-3,17-dione], for which the IC50 is 11.8 ± 0.5 µM. Regarding `C[C@]12CCC(=O)C=C1CC[C@@H]1[C@@H]2[C@H](O)C[C@]2(C)C(=O)CC[C@@H]12` [compound 6, 11α-Hydroxyandrost-4-en-3,17-dione], where the note is “read-out: Mean ± SEM^ a [ μ M]”, the IC50 is 20.5 ± 0.2 µM.
